Assay results: US20260132129A1 (Genesis Therapeutics, Inc., priority 2022, published 2026)

Molecular target: T1, PI3Kα H1047R (T47D cells) (Homo sapiens, UniProt P42336, H1047R)
T1 construct: endogenous in cells; host or cells: T47D cells
Experiment: PI3Kα cellular assay: pAKT HTRF in T47D cells after EGF stimulation
Type: cell-based
Details: for IC50: T47D cells (PI3Kα H1047R), pAKT S473 HTRF
Procedure, shortened: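 pAKT read by HTRF in lysates of EGF-stimulated (20 ng/mL, 10 min) T47D H1047R cells. Before stimulation, serum-starved cells (16 h) received compound for 1 h at 37 °C, dosed from 10,000 nM down to 0.5 nM in 3-fold steps.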

[1] = selectivity T47D (H1047R) over SKBR3 (WT), pAKT HTRF
[2] = 1 hr compound, 20 ng/ml EGF 10 min
[3] = selectivity of T47D (H1047R) over SKBR3 (WT) pAKT IC50

T1 sequence (P42336 whole entry H1047R): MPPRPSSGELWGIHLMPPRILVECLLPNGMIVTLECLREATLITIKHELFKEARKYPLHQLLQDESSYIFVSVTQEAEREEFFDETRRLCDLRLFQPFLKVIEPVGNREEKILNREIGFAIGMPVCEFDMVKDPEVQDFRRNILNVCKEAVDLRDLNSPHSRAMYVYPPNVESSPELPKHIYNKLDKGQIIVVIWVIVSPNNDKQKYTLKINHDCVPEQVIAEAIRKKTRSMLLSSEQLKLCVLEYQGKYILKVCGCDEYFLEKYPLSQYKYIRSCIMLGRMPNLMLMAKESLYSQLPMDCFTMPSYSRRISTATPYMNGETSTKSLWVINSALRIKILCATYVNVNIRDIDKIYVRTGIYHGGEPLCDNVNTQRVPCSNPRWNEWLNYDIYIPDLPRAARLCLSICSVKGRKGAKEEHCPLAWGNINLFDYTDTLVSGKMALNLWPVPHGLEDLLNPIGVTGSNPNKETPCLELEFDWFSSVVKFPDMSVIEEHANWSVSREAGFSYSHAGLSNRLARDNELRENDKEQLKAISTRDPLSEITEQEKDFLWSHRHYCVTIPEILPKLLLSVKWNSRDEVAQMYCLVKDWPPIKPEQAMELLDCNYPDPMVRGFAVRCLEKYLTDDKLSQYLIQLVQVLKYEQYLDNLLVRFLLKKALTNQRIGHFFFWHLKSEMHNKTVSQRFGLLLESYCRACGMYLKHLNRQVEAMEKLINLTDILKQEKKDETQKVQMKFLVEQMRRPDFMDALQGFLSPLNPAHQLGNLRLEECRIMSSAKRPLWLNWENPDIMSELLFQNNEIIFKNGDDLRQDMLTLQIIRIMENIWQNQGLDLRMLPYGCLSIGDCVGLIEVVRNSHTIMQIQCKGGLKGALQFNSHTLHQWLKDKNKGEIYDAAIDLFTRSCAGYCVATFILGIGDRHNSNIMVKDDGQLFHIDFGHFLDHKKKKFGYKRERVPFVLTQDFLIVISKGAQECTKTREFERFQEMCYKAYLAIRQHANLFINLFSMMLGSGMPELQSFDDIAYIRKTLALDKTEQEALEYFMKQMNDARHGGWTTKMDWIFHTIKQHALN
T1 sequence (P27986 whole entry partner): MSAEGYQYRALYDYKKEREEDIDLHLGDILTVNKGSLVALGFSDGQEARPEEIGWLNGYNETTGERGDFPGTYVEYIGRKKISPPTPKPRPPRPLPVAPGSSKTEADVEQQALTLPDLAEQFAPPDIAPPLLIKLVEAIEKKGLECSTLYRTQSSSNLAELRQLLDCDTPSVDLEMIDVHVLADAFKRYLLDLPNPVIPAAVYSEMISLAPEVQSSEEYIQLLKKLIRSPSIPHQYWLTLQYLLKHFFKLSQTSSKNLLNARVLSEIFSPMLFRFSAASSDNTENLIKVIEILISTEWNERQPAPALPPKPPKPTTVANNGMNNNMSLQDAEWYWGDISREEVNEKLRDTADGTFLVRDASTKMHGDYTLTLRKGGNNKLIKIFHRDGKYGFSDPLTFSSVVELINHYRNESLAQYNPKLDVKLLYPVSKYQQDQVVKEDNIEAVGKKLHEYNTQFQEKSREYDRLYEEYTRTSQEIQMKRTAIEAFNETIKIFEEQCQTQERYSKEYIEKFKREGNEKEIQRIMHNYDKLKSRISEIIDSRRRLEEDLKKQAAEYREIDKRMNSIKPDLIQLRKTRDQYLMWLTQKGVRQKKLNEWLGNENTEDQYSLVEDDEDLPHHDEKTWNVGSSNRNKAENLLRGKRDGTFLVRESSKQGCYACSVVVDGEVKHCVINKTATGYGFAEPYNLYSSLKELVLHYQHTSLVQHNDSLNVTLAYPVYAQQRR

Row | SMILES | IC50 (EGF stimulation) [µM] | T47D pAKT S473 HTRF IC50 (H1047R): T47D (H1047R) selectivity over SKBR3 (WT) [1] | IC50 [2] [µM] | T47D pAKT S473 HTRF IC50 (H1047R): T47D (H1047R) selectivity over SKBR3 (WT) [3]
1 | Cc1cc(C(C)Nc2ccccc2S(N)(=O)=O)c2nc(-c3ccc(C4CNC4)nc3)c(C)c(=O)n2c1.O=C(O)C(F)(F)F (centres unmarked) [Compound 1305] | > 2 | C (C denotes ≤5-fold) | – | –
2 | Cc1cc([C@H](C)Nc2ccccc2C(=O)O)c2nc([C@H]3CCOC3)cc(=O)n2c1 [Compound 539] | – | B (B denotes 20-fold≥value>5-fold) | 0.5 to 2 | –
3 | Cc1cc([C@@H](C)Nc2ccccc2S(N)(=O)=O)c2nc([C@@H]3CCCN(CC(F)F)C3)c(C)c(=O)n2c1 [Compound 1309] | 0.5 to 2 | B (B denotes 20-fold≥value>5-fold) | – | –
4 | Cc1cc([C@H](C)Nc2ccccc2C(=O)O)c2nc([C@H]3CCCC(CC(F)F)C3)c(C)c(=O)n2c1 (some centres unmarked) [Compound 1331] | – | C (C denotes ≤5-fold) | – | –
5 | Cc1cc(C(C)Nc2cccc3[nH]nnc23)c2nc(N3CCOCC3)cc(=O)n2c1 (centres unmarked) [Compound 743] | – | – | – | A (A denotes >20-fold)
6 | Cc1cn2c(=O)c(C)c(-c3cccc(F)c3)nc2c(C(C)Nc2ccccc2C(=O)O)c1C (centres unmarked) [Compound 1348] | < 0.1 | A (A denotes >20-fold) | – | –
7 | Cc1cc([C@@H](C)Nc2ccccc2)c2nc(-c3ccc(F)cc3)c(C)c(=O)n2c1 [Compound 1123] | > 2 | C (C denotes ≤5-fold) | – | –
8 | Cc1cc([C@H](C)Nc2ccccc2C(=O)O)c2nc(N3CC(Cl)C3)cc(=O)n2c1 [Compound 365] | – | C (C denotes ≤5-fold) | > 2 | –
9 | Cc1cc([C@H](C)Nc2ccccc2C(=O)O)c2ncc(Cc3ccc(F)cc3)c(=O)n2c1 [Compound 914] | > 2 | – | – | C (C denotes ≤5-fold)
10 | Cc1cc([C@@H](C)Nc2ccccc2)c2nc(-c3cc(C)c4oc(=O)[nH]c4c3)cc(=O)n2c1 (single isomer, unassigned) [Compound 29] | – | C (C denotes ≤5-fold) | > 2 | –
11 | Cc1cc(C(C)Nc2ccccc2C(=O)O)c2nc(-c3cccc(F)c3)c(C3CC3)c(=O)n2c1 (centres unmarked) [Compound 1231] | < 0.1 | A (A denotes >20-fold) | – | –
12 | Cc1cc([C@H](C)Nc2ccccc2-c2ccnnc2)c2nc(N3Cc4ccccc4C3)c(C)c(=O)n2c1 [Compound 909] | > 2 | – | – | C (C denotes ≤5-fold)
13 | Cc1cc([C@@H](C)Nc2ccccc2C(=O)O)c2nc(-c3cccnc3)c(C)c(=O)n2c1 (single isomer, unassigned) [Compound 949] | < 0.1 | – | – | A (A denotes >20-fold)
14 | Cc1cc(C(C)Nc2ccccc2C(N)=O)c2nc(-c3cccnc3)c(C)c(=O)n2c1 (centres unmarked) [Compound 1152] | 0.1 to 0.5 | A (A denotes >20-fold) | – | –
15 | Cc1cc(C(C)Nc2ccccc2C(=O)O)c2nc(N3CCC(C)(O)CC3)cc(=O)n2c1 (centres unmarked) [Compound 473] | – | C (C denotes ≤5-fold) | > 2 | –
16 | Cc1cc([C@@H](C)Nc2ccccc2C(=O)O)c2nc(-c3ccc(CC4CCN(C)CC4)cc3)c(C)c(=O)n2c1 [Compound 307] | – | B (B denotes 20-fold≥value>5-fold) | 0.5 to 2 | –
17 | CCc1cc(C(=O)NOC)ccc1-c1cc(=O)n2cc(C)cc([C@H](C)Nc3ccccc3C(=O)O)c2n1 [Compound 504] | – | C (C denotes ≤5-fold) | > 2 | –
18 | Cc1cc([C@@H](C)Nc2ccccc2S(N)(=O)=O)c2nc(-c3cccnc3)c(C)c(=O)n2c1 [Compound 1107] | < 0.1 | A (A denotes >20-fold) | – | –
19 | Cc1cc([C@H](C)Nc2ccccc2C(=O)O)c2nc(-c3ccnc(C4CC4)c3)c(C)c(=O)n2c1 [Compound 954] | 0.5 to 2 | – | – | B (B denotes 20-fold≥value>5-fold)
20 | Cc1cc(C(C)Nc2ccccc2S(N)(=O)=O)c2nc(-c3ccc4c(c3)c(C)nn4C3CC3)c(C)c(=O)n2c1 (centres unmarked) [Compound 944] | 0.1 to 0.5 | – | – | A (A denotes >20-fold)
21 | Cc1cc([C@H](C)Nc2ccccc2C(=O)O)c2nc(N3C[C@@H](C)C(F)(F)[C@@H](C)C3)cc(=O)n2c1 [Compound 712, 2-(((S)-1-(2-((3S,5R)-4,4-difluoro-3,5-dimethylpiperidin-1-yl)-7-methyl-4-oxo-4H-pyrido[1,2-a]pyrimidin-9-yl)ethyl)amino)benzoic acid] | > 2 | – | – | C (C denotes ≤5-fold)
22 | Cc1c(N2C[C@@H](C)O[C@@H](C)C2)nc2c([C@@H](C)Nc3ccccc3C(=O)O)cc(C(F)(F)F)cn2c1=O [Compound 907] | – | – | – | C (C denotes ≤5-fold)

Row | SMILES | IC50 (EGF stimulation) [µM] | T47D pAKT S473 HTRF IC50 (H1047R): T47D (H1047R) selectivity over SKBR3 (WT) [1] | IC50 [2] [µM] | T47D pAKT S473 HTRF IC50 (H1047R): T47D (H1047R) selectivity over SKBR3 (WT) [3]
23 | Cc1cc(C(C)Nc2ccccc2C(=O)O)c2nc(-c3ccc4[nH]nc(-c5ccccn5)c4c3)cc(=O)n2c1 (centres unmarked) [Compound 304] | – | C (C denotes ≤5-fold) | > 2 | –
24 | C=CC(=O)Nc1ccc(C(=O)O)c(N[C@@H](C)c2cc(C)cn3c(=O)cc(N4CCOCC4)nc23)c1 [Compound 873] | > 2 | – | – | C (C denotes ≤5-fold)
25 | Cc1cc(C(C)Nc2ccccc2C(=O)O)c2nc(-c3ccc(C4CNC4)nc3)c(C)c(=O)n2c1 (centres unmarked) [Compound 1303] | > 2 | C (C denotes ≤5-fold) | – | –
26 | Cc1cc([C@@H](C)Nc2ccccc2C(=O)O)c2nc(-c3ccc4c(C)n[nH]c4c3)cc(=O)n2c1 [Compound 923] | – | – | – | B (B denotes 20-fold≥value>5-fold)
27 | CC(=O)N1CCCC(c2cc(=O)n3cc(C)cc(C(C)Nc4ccccc4C(=O)O)c3n2)CC1 (centres unmarked) [Compound 511] | – | C (C denotes ≤5-fold) | > 2 | –
28 | CC(=O)N[C@H]1CCCC(c2cc(=O)n3cc(C)cc(C(C)Nc4ccccc4C(=O)O)c3n2)C1 (some centres unmarked) [Compound 580] | – | C (C denotes ≤5-fold) | – | –
29 | CONC(=O)c1ccc(-c2cc(=O)n3cc(C)cc(C(C)NC4=CC=CCC4C(=O)O)c3n2)c(OC)c1 (centres unmarked) [Compound 299] | – | C (C denotes ≤5-fold) | > 2 | –
30 | Cc1cc([C@@H](C)Nc2ccccc2C(=O)O)c2nc([C@H]3CCCOC3)c(C)c(=O)n2c1 [Compound 1279] | < 0.1 | A (A denotes >20-fold) | – | –
31 | Cc1cc([C@H](C)Nc2ccccc2S(N)(=O)=O)c2nc([C@H]3CCCOC3)c(C)c(=O)n2c1 [Compound 1286] | 0.5 to 2 | B (B denotes 20-fold≥value>5-fold) | – | –
32 | Cc1cc(C(C)Nc2ccccc2-c2ccnnc2)c2nc(N3CCOCC3)cc(=O)n2c1 (centres unmarked) [Compound 494] | – | C (C denotes ≤5-fold) | > 2 | –
33 | Cc1cc(C(C)Nc2ccccc2C(=O)O)c2nc(-c3ccc(F)cc3)c(C)c(=O)n2c1 (centres unmarked) [Compound 691, 2-((1-(2-(4-fluorophenyl)-3,7-dimethyl-4-oxo-4H-pyrido[1,2-a]pyrimidin-9-yl)ethyl)amino)benzoic acid] | < 0.1 | – | – | A (A denotes >20-fold)
34 | Cc1cc([C@@H](C)Nc2ccccc2C(=O)O)c2nc(-c3ccncc3)c(C)c(=O)n2c1 [Compound 1004] | > 2 | – | – | C (C denotes ≤5-fold)
35 | Cc1cc([C@H](C)Nc2ccccc2C(=O)O)c2nc(-c3ccc4c(c3)NC(=O)C4)cc(=O)n2c1 [Compound 576] | – | C (C denotes ≤5-fold) | > 2 | –
36 | Cc1cc(C(C)NC2=C(CC(=O)O)C=CCC2)c2nc(N3CCSCC3)cc(=O)n2c1 (centres unmarked) [Compound 284] | – | C (C denotes ≤5-fold) | > 2 | –
37 | Cc1cc([C@@H](C)Nc2ccccc2-c2ccnnc2)c2nc(-c3ccc4c(C)cn(C)c4c3)c(C)c(=O)n2c1 [Compound 1133] | > 2 | C (C denotes ≤5-fold) | – | –
38 | Cc1cc(C(C)Nc2ccccc2C(=O)O)c2nc(-c3ccc4c(c3)NC(=O)C4)cc(=O)n2c1 (centres unmarked) [Compound 506] | – | B (B denotes 20-fold≥value>5-fold) | 0.5 to 2 | –
39 | Cc1cc(C(C)Nc2ccccc2C(=O)O)c2nc(-c3ccc(F)cc3)c(C)c(=O)n2c1 (centres unmarked) [Compound 721] | 0.1 to 0.5 | – | – | –
40 | Cc1cc(C(C)Nc2ccccc2C)c2nc(N3CCOCC3)cc(=O)n2c1 (centres unmarked) [Compound 154] | – | C (C denotes ≤5-fold) | > 2 | –
41 | Cc1cc(C(C)Nc2ccccc2C#N)c2nc(N3CCOCC3)cc(=O)n2c1 (centres unmarked) [Compound 321] | – | C (C denotes ≤5-fold) | > 2 | –
42 | Cc1cc([C@@H](C)Nc2ccccc2C(=O)O)c2nc(-c3cccc(C4CC4)c3)c(C)c(=O)n2c1 (single isomer, unassigned) [Compound 971] | < 0.1 | – | – | A (A denotes >20-fold)
43 | Cc1cc([C@H](C)Nc2ccccc2C(=O)O)c2nc(N3CCC(C)CC3)cc(=O)n2c1 [Compound 360] | – | C (C denotes ≤5-fold) | > 2 | –
